Where a name gives a salt, the structure may show the parent alone.
Tests used:
Jurkat cells [1] = test: Jurkat cell adhesion system (adhesion to immobilized human fibronectin, PMA-stimulated); assay type: cell-based; details: concentration inhibiting by 50% the PMA-stimulated increase in adhered Jurkat cells on human fibronectin
Excerpt: The “C1-6 haloalkyl” of Group A1 and Group A2 (mentioned below) is aforementioned “C1-6 alkyl” having 1-6 aforementioned “halogen” bonded thereto, as examples there may be mentioned straight-chain or branched-chain alkyl groups such as methyl, ethyl, n-propyl, isopropyl, n-butyl, isobutyl, s-butyl, t-butyl, pentyl, isopentyl, 2-methylbutyl, neopentyl, 1-ethylpropyl, hexyl, isohexyl, 4-methylpentyl, 3-methylpentyl, 2-methylpentyl, 1-methylpentyl, 3,3-dimethylbutyl, 2,2-dimethylbutyl, 1,1-dimethylbutyl, 1,2-dimethylbutyl, 1,3-dimethylbutyl, 2,3-dimethylbutyl, 1-ethylbutyl or 2-ethylbutyl, having fluorine or chlorine bonded thereto, among which C1-4 alkyl having 1 to 3 fluorine or chlorine bonded thereto is preferred, and trifluoromethyl is particularly preferred.
As examples of the “C2-7 alkylene”, where C2-7 alkylene is permissible only in the case that a spiro union is formed together with the substituted 5- to 10-membered cycloalkyl or the substituted 5- to 10-membered cycloalkenyl, of Group A1 and Group A2 (mentioned below), there may be mentioned straight-chain or branched-chain groups such as 1,2-ethylene, trimethylene, propylene, ethylethylene, tetramethylene, pentamethylene, hexamethylene or heptamethylene, among which 1,2-ethylene, trimethylene, tetramethylene or pentamethylene is preferred, and 1,2-ethylene, tetramethylene or pentamethylene is particularly preferred.
As examples of the “halogen” of Group W1 there may be mentioned the same ones listed above, among which fluorine or chlorine is preferred.
As examples of the “C1-6 alkyl” of Group W1 there may be mentioned the same ones listed above, among which C1-4 groups are preferred, and methyl or ethyl is particularly preferred.
The “C2-7 alkoxyalkyl” of Group W1 is aforementioned “C1-6 alkyl” having the aforementioned “C1-6 alkoxy” bonded thereto, of 2 to 7 carbon (total number of carbon), and as examples there may be mentioned methoxymethyl, methoxyethyl, ethoxyethyl, methoxypropyl or propoxyethyl, among which methoxymethyl is preferred.
As examples of the “C1-6 alkoxy” of the “C1-6 alkoxy optionally substituted with a substituent selected from Group T1” of Group W1 there may be mentioned the same ones listed above, among which C1-4 groups are preferred, and methoxy, ethoxy, isopropoxy or propoxy is particularly preferred.

[2] = test system: human peripheral blood neutrophils; test: Human peripheral blood neutrophil adhesion system (adhesion to HUVEC immobilized plate, PMA-stimulated); assay type: cell-based; details: concentration inhibiting by 50% the PMA-stimulated increase in neutrophils adhered to HUVEC
Excerpt: As examples of the “C2-7 alkylcarbonyl” of Group W1 there may be mentioned the same ones listed above, among which C2-5 groups are preferred, and acetyl is particularly preferred.
As examples of the “C1-6 alkyl” for R^6X and R^7X there may be mentioned the same ones listed above.
As examples of the “halogen” of Group C1 there may be mentioned the same ones listed above, among which bromine, fluorine or chlorine is preferred.
As examples of the “C1-6 alkyl” of Group C1 there may be mentioned the same ones listed above, among which C1-4 groups are preferred, and methyl is particularly preferred.
As examples of the “C1-6 alkoxy” of Group C1 there may be mentioned the same ones listed above, among which C1-4 groups are preferred, and methoxy or ethoxy is particularly preferred.
As examples of the “halogen” of Group D1 and Group D2 (mentioned below) there may be mentioned the same ones listed above, among which fluorine or chlorine is preferred.
As examples of the “C1-6 alkoxy” of Group D1 and Group D2 (mentioned below) there may be mentioned the same ones listed above, among which C1-4 groups are preferred, and methoxy or ethoxy is particularly preferred.
The “C1-6 alkylthio” of Group D1 is a thio group having the aforementioned “C1-6 alkyl” bonded thereto, and as examples there may be mentioned straight-chain or branched-chain groups such as methylthio, ethylthio, propylthio, isopropylthio, […], isobutylthio, s-butylthio, t-butylthio, pentylthio, isopentylthio, 2-methylbutylthio, neopentylthio, 1-ethylpropylthio, hexylthio, isohexylthio, 4-methylpentylthio, 3-methylpentylthio, 2-methylpentylthio, 1-methylpentylthio, 3,3-dimethylbutylthio, 2,2-dimethylbutylthio, 1,1-dimethylbutylthio, 1,2-dimethylbutylthio, 1,3-dimethylbutylthio, 2,3-dimethylbutylthio, 1-ethylbutylthio or 2-ethylbutylthio, among which C1-4 groups are preferred, and methylthio or ethylthio is particularly preferred.
As examples of the “C1-6 alkylsulfonyl” of Group D1 there may be mentioned the same ones listed above, among which C1-4 groups are preferred, and methylsulfonyl or ethylsulfonyl is particularly preferred.
The “C1-6 alkylsulfinyl” of Group D1 is a sulfinyl group having the aforementioned “C1-6 alkyl” bonded thereto, as examples there may be mentioned straight-chain or branched-chain groups such as methylsulfinyl, ethylsulfinyl, propylsulfinyl, isopropylsulfinyl, […], isobutylsulfinyl, s-butylsulfinyl, t-butylsulfinyl, pentylsulfinyl, isopentylsulfinyl, 2-methylbutylsulfinyl, neopentylsulfinyl, 1-ethylpropylsulfinyl, hexylsulfinyl, isohexylsulfinyl, 4-methylpentylsulfinyl, 3-methylpentylsulfinyl, 2-methylpentylsulfinyl, 1-methylpentylsulfinyl, 3,3-dimethylbutylsulfinyl, 2,2-dimethylbutylsulfinyl, 1,1-dimethylbutylsulfinyl, 1,2-dimethylbutylsulfinyl, 1,3-dimethylbutylsulfinyl, 2,3-dimethylbutylsulfinyl, 1-ethylbutylsulfinyl or 2-ethylbutylsulfinyl, among which C1-4 groups are preferred, and methylsulfinyl or ethylsulfinyl is particularly preferred.

Balb/c mice = test: DSS-induced colitis model; assay type: in vivo; details: male Balb/c mice; 1-3% DSS for 5-7 days; 30 mg/kg orally once a day for 5-7 successive days
Excerpt: Evaluation of Compounds in DSS-Induced Colitis Model
A 1-3% solution of dextran sulfate sodium (hereinafter abbreviated as DSS; ICN) in purified water (Otsuka Pharmaceutical) was fed freely to 6- to 7-week-old male Balb/c mice (Charles River Japan) for 5-7 days to induce colitis. Disease Activity Index (hereinafter abbreviated as DAI) scored based on fecal hardness, blood content in feces and body weight change, the number of neutrophils infiltrating the colon and the length of the colon were used as indexes to evaluate compounds. Each compound was suspended or dissolved in an aqueous solution containing 0.5% methyl cellulose (Wako), and orally administered at 30 mg/kg once a day, for 5-7 successive days.

Jurkat cells [3] = test: Jurkat cell adhesion system (adhesion to immobilized human fibronectin, PMA-stimulated); assay type: cell-based; details: concentration inhibiting by 50% the PMA-stimulated increase in the number of adhered Jurkat cells on human fibronectin; 45-60 minutes, 37° C.
Description: Evaluation of Compounds in Jurkat Cell Adhesion System
<Immobilization of Human Fibronectin in 96-Well Plate>
Human fibronectin (Becton Dickinson Biosciences) was diluted with phosphate-buffered saline (hereinafter abbreviated as PBS; Sigma) to 0.1-0.01 μg/ml, and the diluted solution was added to a 96-well plate (Becton Dickinson) at 50 μl/well, and allowed to stand overnight at 4° C. On the following day, the supernatant was removed from the plate, and then PBS containing 1% bovine serum albumin (hereinafter abbreviated as BSA; Sigma) was added thereto at 100 μl/well and incubation was performed at 37° C. for 2 hours in a CO2 incubator (Hirasawa).
The supernatant was removed from each plate and Jurkat cells suspended in RPMI-1640 (Sigma) containing 1 mg/ml BSA were added at 80 μl/well for 2.5×10^5 cells/well. The compound diluted to different concentrations with RPMI-1640 containing 1 mg/ml BSA was immediately added at 10 μl/well, and then 100 nM phorbol myristate acetate (hereinafter abbreviated as PMA; Sigma) in RPMI-1640 containing 1 mg/ml BSA was added at 10 μl/well and the plate was incubated in a CO2 incubator at 37° C. for 45-60 minutes. The supernatant was removed from the plate and each well was washed several times with 100 μl/well of RPMI-1640, after which 50 mM citrate buffer (pH 5.0) containing 3.75 mM p-nitrophenol-N-acetyl-β-D-glucosaminide (Sigma) and 0.25% Triton X-100 (Sigma) were added at 60 μl/well, and the mixture was placed in a CO2 incubator and incubated at 37° C. for 45 minutes. After incubation, 50 mM glycine buffer (pH 10.4) containing 5 mM EDTA was added at 90 μl/well, and the absorbance at 405 nm was measured with an EL340 Automated Microplate Reader (BIO-TEK) to determine the adhered cell count. The concentration of each compound which inhibited the increase in the number of adhered cells by the PMA-stimulation by 50% was recorded as the IC50 (μM).

[4] = test system: human peripheral blood neutrophils; test: Human peripheral blood neutrophil adhesion system (adhesion to immobilized HUVEC, PMA-stimulated); assay type: cell-based; details: 0.75 h, concentration inhibiting by 50% the PMA-stimulated increase in the number of adhered BCECF-AM labeled neutrophils on HUVEC immobilized plate, 45 minutes, 37° C.
Description: Evaluation of Compounds in Human Peripheral Blood Neutrophil Adhesion System
<Preparation of Human Peripheral Blood Neutrophils>
To a plastic centrifugation tube containing 100 units of heparin sodium (Shimizu Pharmaceutical) was added 25 ml of fresh blood sampled from a healthy human. After adding and mixing therewith 8 ml of physiological saline (Otsuka Pharmaceutical) containing 6% Dextran (Nacalai), the mixture was allowed to stand at room temperature for 45 minutes for sedimentation of the erythrocytes. The resultant supernatant was transferred to another plastic centrifugation tube and combined with an equivalent volume of phosphate-buffered saline (hereinafter abbreviated as PBS; Sigma), and then centrifuged at 1600 rpm for 7 minutes at room temperature. The obtained hematocyte fraction was suspended in 4 ml of PBS, and the suspension was superposed on 4 ml of Ficoll-Paque™ PLUS (Amersham Biosciences). The resultant bilayer liquid was centrifuged at 2000 rpm for 30 minutes at room temperature, after which the supernatant was removed and the precipitate was suspended in 10 ml of PBS and centrifuged at 1200 rpm for 7 minutes, and the supernatant was removed. The resulting precipitate was suspended in 0.5 ml of PBS again, and then 10 ml of distilled water (Otsuka Pharmaceutical) was added, 0.5 ml of an aqueous solution containing 3 M NaCl was immediately added to restore isotonicity, the mixture was centrifuged at 1200 rpm for 7 minutes, and the obtained precipitate was suspended in PBS containing 1 mg/ml bovine serum albumin (hereinafter abbreviated as BSA; Sigma) again and stored in ice until being used for the experiment.
<Fluorescent Labeling of Human Peripheral Blood Neutrophils>
The obtained neutrophils were suspended in PBS containing 1 mg/ml BSA at 2×10^7 cells/ml. BCECF-AM (Dojin) was added to a final concentration of 5 μM, and the mixture was incubated at 37° C. for 45 minutes. It was then rinsed twice with PBS containing 1 mg/ml BSA by centrifugation, suspended again in PBS containing 1 mg/ml BSA at 5×10^7 cells/ml, and stored in ice until use.
<Preparation of HUVEC Immobilized Plate>
Human umbilical vein endothelial cells (hereinafter abbreviated as HUVEC) were suspended in MCDB131 medium (Chlorella Industries) containing 10% fetal calf serum and 30 μg/ml endothelial cell growth supplement (Becton Dickinson Bioscience). The suspension was added at 7.5×10^3 cells/well to a 96-well plate (Iwaki) immobilized with type I collagen, and cultured for 3 days in a CO2 incubator (Hirasawa). Upon confirming confluency of the cells, the supernatant was discarded, the plate was rinsed twice with PBS, and then PBS containing 0.1% glutaraldehyde (Kanto Kagaku) was added at 100 μl/well and the HUVECs were immobilized for 5 minutes. The supernatant was discarded and the plate was washed twice with PBS, and then PBS was added at 100 μl/well and the mixture was stored at 4° C. until use.
To 6.5 ml of RPMI-1640 medium (Sigma) containing 1 mg/ml of BSA were added 0.5 ml of a suspension of BCECF-AM labeled neutrophils at 5×10^7/ml stored in ice, which was mixed, and the mixture was added at 80 μl/well to a HUVEC immobilized plate. To this plate were immediately added 10 μl/well of a solution of the compound diluted at different concentrations with RPMI-1640 containing 1 mg/ml BSA, and 10 μl/well of 100 nM phorbol myristate acetate (hereinafter abbreviated as PMA; Sigma) in RPMI-1640 containing 1 mg/ml BSA, and the mixture was incubated in a CO2 incubator at 37° C. for 45 minutes. The supernatant was removed from the plate, which was then washed several times with RPMI-1640 at 100 μl/well, and then PBS containing 0.1% NP-40 (Calbiochem) was added thereto at 100 μl/well and the fluorescent intensity was measured with and ARVO™SX 1420 multi label counter (Wallac) to determine the number of adhered cells. […]

Row | Compound | IC50 (Jurkat cells [1]) [µM] | IC50 [2] [µM] | improvement in comparison with the DSS control group (DAI, number of neutrophils infiltrating the colon, length of the colon) (Balb/c mice) | IC50 (Jurkat cells [3]) [µM] | IC50 [4] [µM]
1 | CCCN1CCN(c2cc3c(cc2C2=CCC(C(C)(C)C)CC2)N(C)CCO3)CC1 (racemic) [Example 8, 6-(4-t-Butylcyclohex-1-enyl)-4-methyl-7-(4-propylpiperazin-1-yl)-3,4-dihydro-2H-benzo[1,4]oxazine hydrochloride] | 3.4 | 16.7 |  |  | 
2 | CCCCN1CCN(c2cc(OCCOC)ccc2C2CC(C)(C)CC(C)(C)C2)CC1 [Example 10, 1-Butyl-4-[5-(2-methoxyethoxy)-2-(3,3,5,5-tetramethylcyclohexyl)phenyl]piperazine hydrochloride] | 3.3 | 7.8 |  |  | 
3 | CCCN1CCN(c2ccc(OCCOC)cc2C2CC(C)(C)CC(C)(C)C2)CC1 [Example 12, 1-[4-(2-Methoxyethoxy)-2-(3,3,5,5-tetramethylcyclohexyl)phenyl]-4-propylpiperazine hydrochloride] | 14.7 | 12.5 |  |  | 
4 | CCCCN1CCN(c2cc3c(cc2C2=CC(C)(C)CC(C)(C)C2)OCO3)CC1 [Example 13, 1-Butyl-4-[6-(3,3,5,5-tetramethylcyclohex-1-enyl)benzo [1,3]dioxol-5-yl]piperazine hydrochloride] | 3.8 | 21.7 |  |  | 
5 | CCCCN1CCN(c2cc3c(cc2C2CC(C)(C)CC(C)(C)C2)OCO3)CC1 [Example 14, 1-Butyl-4-[6-(3,3,5,5-tetramethylcyclohexyl)benzo[1,3]dioxol-5-yl]piperazine hydrochloride] | 7.1 | 22.4 |  |  | 
6 | CCCCN1CCN(c2ccc(N3CCC(OC)CC3)cc2C2CC(C)(C)CC(C)(C)C2)CC1.Cl [Example 32, 1-Butyl-4-[4-(4-methoxypiperidin-1-yl)-2-(3,3,5,5-tetramethylcyclohexyl)phenyl]piperazine hydrochloride] |  |  | particularly good improvement | 3.6 | 7
